Converted amounts (≈) assume the structure as drawn. Where two headings read alike, the source gives them in different places.
Key:
E. Faecalis UC ® 9217 = experiment: In vitro MIC by agar dilution (NCCLS), Gram-positive bacteria: E. faecalis; assay type: cell-based; details: for MIC: Enterococcus faecalis
S. aureus UC ® 9213 = experiment: In vitro MIC by agar dilution (NCCLS), Gram-positive bacteria: S. aureus; assay type: cell-based, Staphylococcus aureus; details: for MIC: Staphylococcus aureus
Description: The oxazolidinone antibacterial agents of this invention have useful activity against a variety of organisms. The in vitro activity of compounds of this invention can be assessed by standard testing procedures such as the determination of minimum inhibitory concentration (MIC) by agar dilution as described in "Methods for Dilution Antimicrobial Susceptibility Tests for Bacteria That Grow Aerobically" (MFT) published January 1983 by the National Committee for Clinical Laboratory Standards, 771 East Lancaster Avenue, Villanova, Pa. 19084, USA. The activity of selected compounds of this invention against Staphylococcus aureus and Streptococcus pneumoniae are shown in Table 1.
^a Minimum inhibitory concentration: lowest concentration of drug
(μg/mL) that inhibits visible growth of the organism.

[1] = UC9217, E. Faecalis UC 9217, agar dilution, read-out: MIC (minimum inhibitory concentration: lowest concentration of drug that inhibits visible growth of the organism)
[2] = UC9213, S. aureus UC 9213, agar dilution, read-out: MIC (minimum inhibitory concentration: lowest concentration of drug that inhibits visible growth of the organism)

Compound | MIC (E. Faecalis UC ® 9217; [1]) [µg/mL] | MIC (S. aureus UC ® 9213; [2]) [µg/mL] | other results
CC(=O)NC[C@H]1CN(c2ccc(N3CCN(c4nc5ccccc5s4)CC3)c(F)c2)C(=O)O1 [Example 1, (S)--N--[[3-[4-[4-(2-Benzothiazolyl)-1-piperazinyl]-3-fluorophenyl]-2-oxo-5-oxazolidinyl]methyl]acetamide] | 2 (≈ 4.26 µM) | 4 (≈ 8.52 µM) | –
CC(=O)NC[C@H]1CN(c2ccc(N3CCN(c4nc(C)ns4)CC3)c(F)c2)C(=O)O1 [Example 25] | 1 (≈ 2.3 µM) | 2 (≈ 4.6 µM) | –
CC(=O)NC[C@H]1CN(c2ccc(N3CCN(c4nnc(N)s4)CC3)c(F)c2)C(=O)O1 [Example 18] | 2 (≈ 4.59 µM) | 2 (≈ 4.59 µM) | –
CC(=O)NC[C@H]1CN(c2ccc(N3CCN(c4nc5ccccc5o4)CC3)c(F)c2)C(=O)O1 [Example 3, (S)--N--[[3-[4-[4-(2-Benzoxazolyl)-1-piperazinyl]-3-fluorophenyl]-2-oxo-5-oxazolidinyl]methyl]acetamide] | 2 (≈ 4.41 µM) | 2 (≈ 4.41 µM) | –
CC(=O)NC[C@H]1CN(c2ccc(N3CCN(c4nnc(C)o4)CC3)c(F)c2)C(=O)O1 [Example 27, (S)--N--[[3-[3-Fluoro-4-[4-(5-methyl-1,3,4-oxadiazol-2-yl)-1-piperazinyl]phenyl]-2-oxo-5-oxazolidinyl]methyl]acetamide] | 4 (≈ 9.56 µM) | 4 (≈ 9.56 µM) | –
CC(=O)NC[C@H]1CN(c2ccc(N3CCN(C4=NCCS4)CC3)c(F)c2)C(=O)O1 [Example 11, (S)--N--[[3-[4-[4-(4,5-Dihydro-2-thiazolyl)-1-piperazinyl]-3-fluorophenyl]-2-oxo-5-oxazolidinyl]methyl]acetamide] | 1 (≈ 2.37 µM) | 2 (≈ 4.74 µM) | –
CC(=O)NC[C@H]1CN(c2ccc(N3CCN(c4n[nH]c(=O)s4)CC3)c(F)c2)C(=O)O1 [Example 24, (S)--N--[[3-[3-Fluoro-4-[4-(5-oxo-1,3,4-thiadiazol-2-yl)-1-piperazinyl]phenyl]-2-oxo-5-oxazolidinyl]methyl]acetamide] | 1 (≈ 2.29 µM) | 1 (≈ 2.29 µM) | –
CC(=O)NC[C@H]1CN(c2ccc(N3CCN(c4nc5cccc(F)c5o4)CC3)c(F)c2)C(=O)O1 [Example 9, (S)--N--[[3-[3-Fluoro-4-[4-(7-fluorobenzoxazol-2-yl)-1-piperazinyl]phenyl]-2-oxo-5-oxazolidinyl]methyl]acetamide] | 1 (≈ 2.12 µM) | 1 (≈ 2.12 µM) | –
CC(=O)NC[C@H]1CN(c2ccc(N3CCN(c4nc5cc([N+](=O)[O-])ccc5o4)CC3)c(F)c2)C(=O)O1 [Example 4, (S)--N--[[3-[3-Fluoro-4-[4-(5-nitrobenzoxazol-2-yl)-1-piperazinyl]phenyl]-2-oxo-5-oxazolidinyl]methyl]acetamide] | 1 (≈ 2.01 µM) | 1 (≈ 2.01 µM) | –
CC(=O)NC[C@H]1CN(c2ccc(N3CCN(c4nc(=O)n(-c5ccccc5)s4)CC3)c(F)c2)C(=O)O1 [Example 26, (S)--N--[[3-[3-Fluoro-4-[4-(2-phenyl-3-oxo-1,2,4-thiadiazol-5-yl)-1-piperazinyl]phenyl]-2-oxo-5-oxazolidinyl]methyl]acetamide] | 4 (≈ 7.8 µM) | 8 (≈ 15.6 µM) | –
CCOC(=O)c1nnc(N2CCN(c3ccc(N4C[C@H](CNC(C)=O)OC4=O)cc3F)CC2)s1 [Example 19, (S)--N--[[3-[4-[4-(5-Ethoxycarbonyl-1,3,4-thiadiazol-2-yl)-3-fluoro-1-piperazinyl]phenyl]-2-oxo-5-oxazolidinyl]methyl]acetamide] | 2 (≈ 4.06 µM) | 4 (≈ 8.12 µM) | –
CC(=O)NC[C@H]1CN(c2ccc(N3CCN(c4nncs4)CC3)c(F)c2)C(=O)O1 [Example 16, (S)--N--[[3-[3-Fluoro-4-[4-(1,3,4-thiadiazol-2-yl)-1-piperazinyl]phenyl]-2-oxo-5-oxazolidinyl]mehtyl]acetamide] | 1 (≈ 2.38 µM) | 1 (≈ 2.38 µM) | –
CC(=O)NC[C@H]1CN(c2ccc(N3CCN(c4nnnn4-c4ccccc4)CC3)c(F)c2)C(=O)O1 [Example 13] | 4 (≈ 8.32 µM) | 4 (≈ 8.32 µM) | –
CC(=O)NC[C@H]1CN(c2ccc(N3CCN(c4nnc(C)s4)CC3)c(F)c2)C(=O)O1 [Example 17, (S)--N--[[3-[3-Fluoro-4-[4-(5-methyl-1,3,4-thiadiazol-2-yl)-1-piperazinyl]phenyl]-2-oxo-5-oxazolidinyl]methyl]acetamide] | 1 (≈ 2.3 µM) | 0.5 (≈ 1.15 µM) | –
CC(=O)NC[C@H]1CN(c2ccc(N3CCN(c4ncc([N+](=O)[O-])s4)CC3)c(F)c2)C(=O)O1 [Example 2, (S)--N--[[3-[3-Fluoro-4-[4-(5-nitrothiazol-2-yl)-1-piperazinyl]phenyl]-2-oxo-5-oxazolidinyl]methyl]acetamide] | 2 (≈ 4.31 µM) | 2 (≈ 4.31 µM) | –
(S)--N--[[3-[4-[3-Fluoro-4-[(methyl-5-tetrazolyl)-1-piperazinyl]phenyl]-2-oxo-5-oxazolidinyl]methyl]acetamide [Example 14] | – | – | MIC (minimum inhibitory concentration: lowest concentration of drug that inhibits visible growth of the organism) (E. Faecalis UC ® 9217; E. Faecalis UC 9217, agar dilution): 2 µg/mL; MIC (minimum inhibitory concentration: lowest concentration of drug that inhibits visible growth of the organism) (S. aureus UC ® 9213; S. aureus UC 9213, agar dilution): 4 µg/mL
CC(=O)NC[C@H]1CN(c2ccc(N3CCN(c4nc5ccc([N+](=O)[O-])cc5s4)CC3)c(F)c2)C(=O)O1 [Example 6, (S)--N--[[3-[3-Fluoro-4-[4-(6-nitrobenzothiazol-2-yl)-1-piperazinyl]phenyl]-2-oxo-5-oxazolidinyl]methyl]acetamide] | 0.5 (≈ 0.972 µM) | 0.5 (≈ 0.972 µM) | –
CC(=O)NC[C@H]1CN(c2ccc(N3CCN(c4nnc(C(F)(F)F)s4)CC3)c(F)c2)C(=O)O1 [Example 20, (S)--N--[[3-[3-Fluoro-4-[4-(5-trifluoromethyl-1,3,4-thiadiazol-2-yl)-1-piperazinyl]phenyl]-2-oxo-5-oxazolidinyl]methyl]acetamide] | 2 (≈ 4.09 µM) | 4 (≈ 8.19 µM) | –
CC(=O)NC[C@H]1CN(c2ccc(N3CCN(C4=NCCO4)CC3)c(F)c2)C(=O)O1 [Example 12, (S)--N--[[3-[4-[4-(4,5-Dihydro-2-oxazolyl)-1-piperazinyl]-3-fluorophenyl]-2-oxo-5-oxazolidinyl]methyl]acetamide] | 4 (≈ 9.87 µM) | 32 (≈ 78.9 µM) | –
CN[C@H](CC(C)C)C(=O)N[C@H]1C(=O)N[C@@H](CC(N)=O)C(=O)N[C@H]2C(=O)N[C@H]3C(=O)N[C@H](C(=O)N[C@H](C(=O)O)c4cc(O)cc(O)c4-c4cc3ccc4O)[C@H](O)c3ccc(c(Cl)c3)Oc3cc2cc(c3O[C@@H]2O[C@H](CO)[C@@H](O)[C@H](O)[C@H]2O[C@H]2C[C@](C)(N)[C@H](O)[C@H](C)O2)Oc2ccc(cc2Cl)[C@H]1O [Vancomycin, reference compound] | – | – | MIC (E. Faecalis UC ® 9217; UC9217, read-out: MIC (minimum inhibitory concentration: lowest concentration of drug that inhibits visible growth of the organism)): 4 µg/mL (≈ 2.76 µM); MIC (S. aureus UC ® 9213; UC9213, read-out: MIC (minimum inhibitory concentration: lowest concentration of drug that inhibits visible growth of the organism)): 1 µg/mL (≈ 0.69 µM)
CC(=O)NC[C@H]1CN(c2ccc(N3CCNCC3)c(F)c2)C(=O)O1 [XLII, reference compound] | 32 (≈ 95.1 µM) | > 64 | –
CC(=O)NC[C@H]1CN(c2ccc(N3CCN(c4nc5ccc(F)cc5o4)CC3)c(F)c2)C(=O)O1 [Example 8, (S)--N--[[3-[3-Fluoro-4-[4-(6-fluorobenzoxazol-2-yl)-1-piperazinyl]phenyl]-2-oxo-5-oxazolidinyl]methyl]acetamide] | 1 (≈ 2.12 µM) | 2 (≈ 4.24 µM) | –
CC(=O)NC[C@H]1CN(c2ccc(N3CCN(c4nc5ccc(F)c(F)c5o4)CC3)c(F)c2)C(=O)O1 [Example 10, (S)--N--[[3-[3-Fluoro-4-[4-(6,7-difluorobenzoxazol-2-yl)-1-piperazinyl]phenyl]-2-oxo-5-oxazolidinyl]methyl]acetamide] | 2 (≈ 4.09 µM) | 2 (≈ 4.09 µM) | –
CC(=O)NC[C@H]1CN(c2ccc(N3CCN(c4nc5cc(F)ccc5o4)CC3)c(F)c2)C(=O)O1 [Example 7, (S)--N--[[3-[3-Fluoro-4-[4-(5-fluorobenzoxazol-2-yl)-1-piperazinyl]phenyl]-2-oxo-5-oxazolidinyl]methyl]acetamide] | 4 (≈ 8.48 µM) | 4 (≈ 8.48 µM) | –
CC(=O)NC[C@H]1CN(c2ccc(N3CCN(C4=NC(=O)CS4)CC3)c(F)c2)C(=O)O1 [Example 15] | 1 (≈ 2.3 µM) | 2 (≈ 4.59 µM) | –
CC(=O)NC[C@H]1CN(c2ccc(N3CCN(c4nccs4)CC3)c(F)c2)C(=O)O1 [Example 5, (S)--N--[[3-[3-Fluoro-4-[4-(2-thiazolyl)-1-piperazinyl]phenyl]-2-oxo-5-oxazolidinyl]methyl]acetamide] | 1 (≈ 2.38 µM) | 2 (≈ 4.77 µM) | –

— patent publication US5736545A, “Azolyl piperazinyl phenyl oxazolidinone antimicrobials” (Pharmacia & Upjohn Company, priority 1997, dated 1998)
